What was measured:
[1] = system: caryocytes in femoral marrow; assay: Reconstitution of caryocyte numbers in femoral marrow after 4 Gy; format: in vivo, mice; settings: 10 μg/kg IP 2 days before 4 Gy
Procedure: The reconstitution of caryocyte numbers and that of hemopoietic progenitors was studied in femoral marrow after irradiation in the dose of 4 Gy and the peptide injection. The test was performed in 12 groups of mice, 6 animals each, and lasted 14 days. Intraperitoneal injections of the peptide in a dose of 10 μg/kg were made 1 day and 2 days before the irradiation.

[2] = system: CFU-S population of bone marrow; assay: Spleen colony and CFU-S count after peptide injection to marrow donor mice; format: in vivo; settings: for Colony count: control 10,7 ± 0,5; for CFU-S count: control 2436
Procedure: (§1) The effect of peptides of the present invention on a population of hemopoietic progenitors was studied by testing for colony formation by hemopoietic stem cells in spleens of irradiated mice.
The peptide was injected intraperitoneally (IP) at different concentrations to intact mice. After two hours, one day, or two days the animals were killed. The bone marrow from the animals was taken to prepare a suspension of marrow cells, which was injected to lethally irradiated (8.5 Gy) mice. Along with the bone marrow, the recipients received injections of thymocytes. After 9 days, spleen colonies were counted. […]
The treatment was performed as described in Example 4(c).

(CBA×C57 B1) F1 mice = assay: Chronic lymphocyte-induced GVHR in irradiated (6 Gy) mice; format: in vivo; settings: for Survival (%) / Survival (mice): after 60 days; for Survival (%): control 60; for Survival (mice): of 10 mice, control 6
Procedure: Recipient (CBA×C57 B1) F1 mice were irradiated with the dose of 6 Gy. Two hours after irradiation they were intravenously injected with 6 mln lymphocytes from mesenteric lymph nodes of C57B1 donor mice. […] The peptide was injected intraperitoneally once daily, 5 days a week, until day 21, for a total of 14 injections.
Indicators of the degree of GVHR development were animal weight and lymphocyte and leukocyte count. The animals were weighed every 3 days. On day 14 and day 28 lymphocyte and leukocyte count were determined using peripheral blood.

[3] = system: patients with cytopenias of immune origin; assay: Clinical study: tolerability; format: in vivo
Procedure: The peptide iDD was given to patients with cytopenias of immune origin and its effect on hemopoietic status was assessed using a number of immunological tests characterising both humoral and cellular immunity.
The iDD was administered 0.1 mg in a 1 ml dose intranasally (once or twice in divided doses) for 5 days. The regime was repeated after a two week interval. For patients receiving steroids and cytostatics, iDD was administered during the therapy or before the cytostatic treatment.

[4] = system: allogenic bone marrow (C57B1 donor, F1 (CBA×C57B1) recipient); assay: Taking of allogenic bone marrow transplant and survival; format: in vivo, mice
Procedure: The preparations were administered daily for the first 5 days after transplantation of bone marrow transplants of donor mice C57B1 to lethally irradiated recipient mice F1 (CBA×C57B1), starting from the 1st hour after the transplantation.

[5] = system: Intact bone marrow cells (hemopoietic stem cells); assay: Spleen colony formation after in vitro treatment of intact bone marrow cells; format: cell-based, mice; settings: for Colony count: Table 4, control 9,0 ± 0,6
Procedure: as §1
Intact bone marrow cells were incubated at 37° C. for 1 hour with different concentrations of the peptide ranging from […]/ml. The suspension was injected to lethally irradiated recipient mice. After 8 days the animals were killed and spleen colonies were counted.
The treatment was carried out as described above in Example 4(a).

[6] = Peptide IP to donor mice 2 hours before
[7] = Peptide IP to donor mice 1 day before
[8] = Peptide IP to donor mice 2 days before

Q: With H-D-iGlu-D-Trp-OH [iDD] as the substance, how does the Caryocyte count ([1]; 4 days after irradiation, 4 Gy alone 9,0 ± 0,3) read?
A: 12,8 ± 0,9 × 10^6

Q: And the Caryocyte count ([1]; 7 days after irradiation, 4 Gy alone 10,6 ± 0,8)?
A: 21,3 ± 2,1 × 10^6

Q: And the Caryocyte count ([1]; 11 days after irradiation, 4 Gy alone 17,0 ± 0,6)?
A: 17,3 ± 1,0 × 10^6

Q: What about the Caryocyte count ([1]; 14 days after irradiation, 4 Gy alone 17,0 ± 1,2) of the same substance?
A: 20,5 ± 0,5 × 10^6

Q: What about the Colony count [2, 6] of the same substance?
A: 6,6 ± 0,5

Q: And the CFU-S count [2, 6]?
A: 917

Q: What about the Colony count [2, 7] of the same substance?
A: 4,7 ± 0,6

Q: What about the CFU-S count [2, 7] of the same substance?
A: 653

Q: And the Colony count ([2]; Peptide IP to donor mice 2 days before + thymocytes)?
A: 9,4 ± 0,9

Q: What about the Colony count [2, 8] of the same substance?
A: 6,0 ± 0,9

Q: What about the CFU-S count [2, 8] of the same substance?
A: 1098

Q: What about the “Animal Weight” value ((CBA×C57 B1) F1 mice; Dose 10 μ/kg, Day 5, initial average 18.3 g) of the same substance?
A: 18.0 grams

Q: And the “Animal Weight” value ((CBA×C57 B1) F1 mice; Dose 10 μ/kg, Day 8)?
A: 18.3 grams

Q: And the “Animal Weight” value ((CBA×C57 B1) F1 mice; Dose 10 μ/kg, Day 12)?
A: 18.3 grams

Q: And the “Animal Weight” value ((CBA×C57 B1) F1 mice; Dose 10 μ/kg, Day 14)?
A: 17.8 grams

Q: And the “Animal Weight” value ((CBA×C57 B1) F1 mice; Dose 10 μ/kg, Day 19)?
A: 17.6 grams

Q: What about the “Animal Weight” value ((CBA×C57 B1) F1 mice; Dose 10 μ/kg, Day 21) of the same substance?
A: 17.8 grams

Q: What about the “Animal Weight” value ((CBA×C57 B1) F1 mice; Dose 10 μ/kg, Day 23) of the same substance?
A: 18.6 grams

Q: And the “Animal Weight” value ((CBA×C57 B1) F1 mice; Dose 10 μ/kg, Day 26)?
A: 18.9 grams

Q: And the “Animal Weight” value ((CBA×C57 B1) F1 mice; Dose 10 μ/kg, Day 30)?
A: 18.9 grams

Q: And the “Animal Weight” value ((CBA×C57 B1) F1 mice; Dose 10 μ/kg, Day 33)?
A: 18.9 grams

Q: What about the “Animal Weight” value ((CBA×C57 B1) F1 mice; Dose 10 μ/kg, Day 40) of the same substance?
A: 19.2 grams

Q: And the “Animal Weight” value ((CBA×C57 B1) F1 mice; Dose 10 μ/kg, Day 47)?
A: 19.9 grams

Q: What about the “Animal Weight” value ((CBA×C57 B1) F1 mice; Dose 10 μ/kg, Day 54) of the same substance?
A: 20.0 grams

Q: What about the “Animal Weight” value ((CBA×C57 B1) F1 mice; Dose 10 μ/kg, Day 60) of the same substance?
A: 20.0 grams

Q: What about the “Animal Weight” value ((CBA×C57 B1) F1 mice; Dose 100 μ/kg, Day 5, initial average 18.3 g) of the same substance?
A: 18.6 grams

Q: And the “Animal Weight” value ((CBA×C57 B1) F1 mice; Dose 100 μ/kg, Day 8)?
A: 18.5 grams

Q: What about the “Animal Weight” value ((CBA×C57 B1) F1 mice; Dose 100 μ/kg, Day 12) of the same substance?
A: 18.6 grams

Q: And the “Animal Weight” value ((CBA×C57 B1) F1 mice; Dose 100 μ/kg, Day 14)?
A: 19.0 grams

Q: And the “Animal Weight” value ((CBA×C57 B1) F1 mice; Dose 100 μ/kg, Day 19)?
A: 19.0 grams

Q: What about the “Animal Weight” value ((CBA×C57 B1) F1 mice; Dose 100 μ/kg, Day 21) of the same substance?
A: 19.3 grams

Q: What about the “Animal Weight” value ((CBA×C57 B1) F1 mice; Dose 100 μ/kg, Day 23) of the same substance?
A: 19.6 grams

Q: And the “Animal Weight” value ((CBA×C57 B1) F1 mice; Dose 100 μ/kg, Day 26)?
A: 19.6 grams

Q: What about the “Animal Weight” value ((CBA×C57 B1) F1 mice; Dose 100 μ/kg, Day 30) of the same substance?
A: 19.7 grams

Q: What about the “Animal Weight” value ((CBA×C57 B1) F1 mice; Dose 100 μ/kg, Day 33) of the same substance?
A: 19.7 grams

Q: And the “Animal Weight” value ((CBA×C57 B1) F1 mice; Dose 100 μ/kg, Day 40)?
A: 20.0 grams

Q: And the “Animal Weight” value ((CBA×C57 B1) F1 mice; Dose 100 μ/kg, Day 47)?
A: 20.3 grams

Q: What about the “Animal Weight” value ((CBA×C57 B1) F1 mice; Dose 100 μ/kg, Day 54) of the same substance?
A: 20.4 grams

Q: And the “Animal Weight” value ((CBA×C57 B1) F1 mice; Dose 100 μ/kg, Day 60)?
A: 20.4 grams

Q: And the “Animal Weight” value ((CBA×C57 B1) F1 mice; Dose 1000 μ/kg, Day 5, initial average 18.3 g)?
A: 19.1 grams

Q: What about the “Animal Weight” value ((CBA×C57 B1) F1 mice; Dose 1000 μ/kg, Day 8) of the same substance?
A: 19.1 grams

Q: What about the “Animal Weight” value ((CBA×C57 B1) F1 mice; Dose 1000 μ/kg, Day 12) of the same substance?
A: 18.9 grams

Q: And the “Animal Weight” value ((CBA×C57 B1) F1 mice; Dose 1000 μ/kg, Day 14)?
A: 18.9 grams

Q: And the “Animal Weight” value ((CBA×C57 B1) F1 mice; Dose 1000 μ/kg, Day 19)?
A: 19.4 grams

Q: And the “Animal Weight” value ((CBA×C57 B1) F1 mice; Dose 1000 μ/kg, Day 21)?
A: 19.6 grams

Q: What about the “Animal Weight” value ((CBA×C57 B1) F1 mice; Dose 1000 μ/kg, Day 23) of the same substance?
A: 19.8 grams

Q: And the “Animal Weight” value ((CBA×C57 B1) F1 mice; Dose 1000 μ/kg, Day 26)?
A: 19.8 grams

Q: What about the “Animal Weight” value ((CBA×C57 B1) F1 mice; Dose 1000 μ/kg, Day 30) of the same substance?
A: 20.0 grams

Q: What about the “Animal Weight” value ((CBA×C57 B1) F1 mice; Dose 1000 μ/kg, Day 33) of the same substance?
A: 20.0 grams

Q: And the “Animal Weight” value ((CBA×C57 B1) F1 mice; Dose 1000 μ/kg, Day 40)?
A: 20.2 grams

Q: And the “Animal Weight” value ((CBA×C57 B1) F1 mice; Dose 1000 μ/kg, Day 47)?
A: 20.5 grams

Q: And the “Animal Weight” value ((CBA×C57 B1) F1 mice; Dose 1000 μ/kg, Day 54)?
A: 20.1 grams

Q: What about the “Animal Weight” value ((CBA×C57 B1) F1 mice; Dose 1000 μ/kg, Day 60) of the same substance?
A: 20.4 grams

Q: What about the “Survival (%)” value ((CBA×C57 B1) F1 mice; Dose 10 μ/kg) of the same substance?
A: 90%

Q: What about the “Survival (mice)” value ((CBA×C57 B1) F1 mice; Dose 10 μ/kg) of the same substance?
A: 9

Q: And the “Survival (%)” value ((CBA×C57 B1) F1 mice; Dose 100 μ/kg)?
A: 90%

Q: And the “Survival (mice)” value ((CBA×C57 B1) F1 mice; Dose 100 μ/kg)?
A: 9

Q: And the “Survival (%)” value ((CBA×C57 B1) F1 mice; Dose 1000 μ/kg)?
A: 80%

Q: What about the “Survival (mice)” value ((CBA×C57 B1) F1 mice; Dose 1000 μ/kg) of the same substance?
A: 8

Q: What about the “Lymphocyte and leukocyte counts versus control mice” value ((CBA×C57 B1) F1 mice; peripheral blood, day 14 and day 28, Table 20 not given) of the same substance?
A: significantly higher

Q: What about the “Dynamics of biochemical indices” value ([3]; before and after 1-3 treatment courses) of the same substance?
A: no changes

Q: What about the “Somatic status (physical examinations)” value ([3]; before and after the treatment) of the same substance?
A: no changes

Q: And the “Changes in AP dynamics and ECG” value ([3]; iDD courses)?
A: not observed

Q: And the “Toxic and adverse reactions” value ([3]; prolonged administration (5-6 courses), 0.1 mg intranasally for 5 days)?
A: no toxic reactions

Q: And the “CFU-S taking root, %” value ([4]; C57B1 marrow to F1, Cyclosporin A 25μg/kg sc, iDD 10μg/kg ip, untreated 17,3)?
A: 43%

Q: And the Average colony count ([4]; C57B1 marrow to F1, daily 5 days, Cyclosporin A 25μg/kg sc, iDD 10μg/kg ip, per 10^5 cells, untreated 1,7 ± 0,3)?
A: 4,2 ± 0,3

Q: And the “MCL (Medium continuation of life)” value ([4]; after 42 days, control 14,3)?
A: 6,0

Q: What about the “Survived mice, %” value ([4]; after 42 days, control 50) of the same substance?
A: 93%

Q: And the “Decrease of number of spleen colonies” value ([5]; Table 4, in the presence of the peptide)?
A: more than 50%

Q: What about the Colony count ([5]; peptide dose 0,1 μg/ml, no thymocytes) of the same substance?
A: 4,4 ± 0,5

Q: What about the Colony count ([5]; peptide dose 0,02 μg/ml, no thymocytes) of the same substance?
A: 3,6 ± 0,5

Q: And the Colony count ([5]; peptide dose 1,0 μg/ml, no thymocytes)?
A: 4,3 ± 0,3

Q: And the Colony count ([5]; peptide dose 10,0 μg/ml, no thymocytes)?
A: 4,3 ± 0,1

Q: And the Colony count ([5]; peptide dose 10,0 μg/ml, with thymocytes 2 × 10^7 cells)?
A: 8,7 ± 0,4

Q: And the Colony count ([5]; peptide dose 20,0 μg/ml, no thymocytes)?
A: 3,9 ± 0,4
